# According to US8680108B2, “Substituted fused aryl and heteroaryl derivatives as PI3K inhibitors” (Incyte Corporation, priority 2009, dated 2014):
# pIC50: −log10 of the molar value. Counter-ions that a name gives are not always drawn.
# Target: T1, PI3Kδ (p110δ/p85α) (Homo sapiens, UniProt O00329)
# T1 construct: purchased Millipore (Bedford, Mass.)
# Test: PI3Kδ scintillation proximity assay
# Type: biochemical
# Details: not given
# Text: Materials: [γ-^33P]ATP (10 mCi/mL) was purchased from Perkin-Elmer (Waltham, Mass.). Lipid kinase substrate, D-myo-Phosphatidylinositol 4,5-bisphosphate (PtdIns(4,5)P2)D (+)-sn-1,2-di-O-octanoylglyceryl, 3-O-phospho linked (PIP2), CAS 204858-53-7, was purchased from Echelon Biosciences (Salt Lake City, Utah). PI3Kδ (p110δ/p85α) was purchased from Millipore (Bedford, Mass.). ATP, MgCl2, DTT, EDTA, MOPS and CHAPS were purchased from Sigma-Aldrich (St. Louis, Mo.). Wheat Germ Agglutinin (WGA) YSi SPA Scintillation Beads was purchased from GE healthcare life sciences (Piscataway, N.J.).
# Assay: The kinase reaction was conducted in polystyrene 384-well matrix white plate from Thermo Fisher Scientific in a final volume of 25 μL. Inhibitors were first diluted serially in DMSO and added to the plate wells before the addition of other reaction components. The final concentration of DMSO in the assay was 0.5%. The PI3K assays were carried out at room temperature in 20 mM MOPS, pH 6.7, 10 mM MgCl2, 5 mM DTT and CHAPS 0.03%. Reactions were initiated by the addition of ATP, the final reaction mixture consisted of 20 μM PIP2, 20 μM ATP, 0.2 μCi [γ-^33P] ATP, 4 nM PI3Kδ. Reactions were incubated for 210 minutes and terminated by the addition of 40 μL SPA beads suspended in quench buffer: 150 mM potassium phosphate pH 8.0, 20% glycerol. 25 mM EDTA, 400 μM ATP. The final concentration of SPA beads is 1.0 mg/mL. After the plate sealing, plates were shaken overnight at room temperature and centrifuged at 1800 rpm for 10 minutes, the radioactivity of the product was determined by scintillation counting on Topcount (Perkin-Elmer). IC50 determination was performed by fitting the curve of percent control activity versus the log of the inhibitor concentration using the GraphPad Prism® 3.0 software.
# T1 sequence (O00329 whole entry): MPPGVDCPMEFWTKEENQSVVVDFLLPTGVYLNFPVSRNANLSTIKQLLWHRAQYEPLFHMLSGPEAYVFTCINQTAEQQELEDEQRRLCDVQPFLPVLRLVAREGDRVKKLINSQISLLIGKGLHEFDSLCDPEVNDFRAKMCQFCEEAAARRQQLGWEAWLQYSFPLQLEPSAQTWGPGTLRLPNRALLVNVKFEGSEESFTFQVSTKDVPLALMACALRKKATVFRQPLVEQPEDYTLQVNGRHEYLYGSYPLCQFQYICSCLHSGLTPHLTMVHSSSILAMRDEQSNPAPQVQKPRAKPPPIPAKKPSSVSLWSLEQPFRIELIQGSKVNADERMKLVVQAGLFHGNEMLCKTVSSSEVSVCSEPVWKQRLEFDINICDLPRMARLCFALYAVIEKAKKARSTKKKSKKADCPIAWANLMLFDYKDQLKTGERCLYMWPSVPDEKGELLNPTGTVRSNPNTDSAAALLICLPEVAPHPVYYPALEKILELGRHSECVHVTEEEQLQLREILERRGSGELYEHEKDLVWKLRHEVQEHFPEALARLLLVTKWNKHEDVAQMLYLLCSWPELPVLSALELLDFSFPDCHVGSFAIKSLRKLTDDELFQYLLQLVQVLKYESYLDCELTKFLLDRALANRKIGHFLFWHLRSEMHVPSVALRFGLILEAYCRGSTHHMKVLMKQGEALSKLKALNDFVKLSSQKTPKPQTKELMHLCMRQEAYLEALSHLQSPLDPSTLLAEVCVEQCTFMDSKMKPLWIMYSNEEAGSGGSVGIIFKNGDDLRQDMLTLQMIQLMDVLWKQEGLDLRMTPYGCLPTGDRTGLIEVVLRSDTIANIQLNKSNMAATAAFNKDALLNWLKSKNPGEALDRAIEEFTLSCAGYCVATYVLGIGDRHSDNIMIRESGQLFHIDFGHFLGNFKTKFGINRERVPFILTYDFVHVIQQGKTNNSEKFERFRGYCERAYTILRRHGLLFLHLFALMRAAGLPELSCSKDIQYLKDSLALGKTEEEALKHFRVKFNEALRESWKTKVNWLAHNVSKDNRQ
# T1 sequence (P27986 whole entry partner): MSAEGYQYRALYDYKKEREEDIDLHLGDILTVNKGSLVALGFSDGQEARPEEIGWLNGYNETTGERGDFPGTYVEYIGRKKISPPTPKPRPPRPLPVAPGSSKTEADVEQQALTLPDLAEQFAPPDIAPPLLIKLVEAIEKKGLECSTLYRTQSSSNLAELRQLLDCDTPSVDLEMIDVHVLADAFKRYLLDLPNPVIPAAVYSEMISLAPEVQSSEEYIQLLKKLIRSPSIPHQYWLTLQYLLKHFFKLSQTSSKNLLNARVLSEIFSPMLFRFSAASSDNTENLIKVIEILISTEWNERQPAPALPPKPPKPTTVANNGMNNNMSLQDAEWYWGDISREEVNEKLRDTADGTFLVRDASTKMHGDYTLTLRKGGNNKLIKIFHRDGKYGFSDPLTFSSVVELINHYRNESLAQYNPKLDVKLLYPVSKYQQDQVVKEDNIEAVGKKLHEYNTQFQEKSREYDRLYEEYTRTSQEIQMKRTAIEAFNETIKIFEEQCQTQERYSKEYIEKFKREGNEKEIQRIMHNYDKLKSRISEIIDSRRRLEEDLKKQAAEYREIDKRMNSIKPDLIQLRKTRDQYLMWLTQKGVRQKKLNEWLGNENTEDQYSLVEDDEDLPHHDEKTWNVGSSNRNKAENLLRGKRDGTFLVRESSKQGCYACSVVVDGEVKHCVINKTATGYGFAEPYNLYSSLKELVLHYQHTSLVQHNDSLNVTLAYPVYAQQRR
row,pIC50,SMILES
1,6.60 to 7.00,"COC[C@H]1CCCN1c1c(C(C)Nc2ncnc3[nH]cnc23)cc(Cl)c2cccnc12 (mixture of isomers) [Example 14, N-(1-{5-chloro-8-[(2R)-2-(methoxymethyl)pyrrolidin-1-yl]quinolin-7-yl}ethyl)-9H-purin-6-amine bis-trifluoroacetate]"
2,6.30 to 6.60,"CC(Nc1ncnc2[nH]cnc12)c1cc(Cl)c2cccnc2c1N1CC[C@H](F)C1 (mixture of isomers) [Example 57, N-(1-{5-Chloro-8-[(3S)-3-fluoropyrrolidin-1-yl]quinolin-7-yl}ethyl)-9H-purin-6-amine bis(trifluoroacetate)]"
3,6.60 to 7.00,"CC(Nc1ncnc2[nH]cnc12)c1cc(Cl)c2cccnc2c1N1CCC(C#N)C1 (mixture of isomers) [Example 60, 1-{5-Chloro-7-[1-(9H-purin-6-ylamino)ethyl]quinolin-8-yl}pyrrolidine-3-carbonitrile bis(trifluoroacetate)]"
4,> 7.30,"CC(Nc1ncnc2[nH]cnc12)c1cc(F)c2ccnnc2c1-c1cccc(F)c1 (single isomer, unassigned) [Example 20, N-{1-[5-Fluoro-8-(3-fluorophenyl)cinnolin-7-yl]ethyl}-9H-purin-6-amine]"
5,< 6.00,"CC(Nc1ncnc2[nH]cnc12)c1cc(F)c2ccnnc2c1-c1cccc(F)c1 (single isomer, unassigned) [Example 21, N-{1-[5-Fluoro-8-(3-fluorophenyl)cinnolin-7-yl]ethyl}-9H-purin-6-amine]"
6,> 7.30,"CC(Nc1nc(N)nc2[nH]cnc12)c1cc(F)c2ccnnc2c1-c1cccc(F)c1 (single isomer, unassigned) [Example 22, N(6)-{1-[5-Fluoro-8-(3-fluorophenyl)cinnolin-7-yl]ethyl}-9H-purine-2,6-diamine]"
7,> 7.30,"CC(Nc1ncnc2[nH]cnc12)c1cc(Cl)c2ccnnc2c1-c1ccccc1F (single isomer, unassigned) [Example 28, N-{1-[5-Chloro-8-(2-fluorophenyl)cinnolin-7-yl]ethyl}-9H-purin-6-amine]"
8,6.60 to 7.00,"CC(Nc1ncnc2[nH]cnc12)c1cc(F)c2ccnnc2c1-c1cc(F)cc(F)c1 (single isomer, unassigned) [Example 29, N-{1-[8-(3,5-difluorophenyl)-5-fluorocinnolin-7-yl]ethyl}-9H-purin-6-amine trifluoroacetate]"
9,> 7.30,"CCC(Nc1ncnc2[nH]cnc12)c1cc(Cl)c2ccnnc2c1-c1cccc(F)c1 (single isomer, unassigned) [Example 33, N-{1-[5-chloro-8-(3-fluorophenyl)cinnolin-7-yl]propyl}-9H-purin-6-amine]"
10,7.00 to 7.30,"CC(Nc1ncnc2[nH]cnc12)c1cc(Cl)c2ccnnc2c1-c1cncc(F)c1 (single isomer, unassigned) [Example 34, N-{1-[5-chloro-8-(5-fluoropyridin-3-yl)cinnolin-7-yl]ethyl}-9H-purin-6-amine trifluoroacetate]"
11,< 6.00,"CC(Nc1ncnc2[nH]cnc12)c1cc(Cl)c2ccnnc2c1-c1cncc(F)c1 (single isomer, unassigned) [Example 35, N-{1-[5-chloro-8-(5-fluoropyridin-3-yl)cinnolin-7-yl]ethyl}-9H-purin-6-amine trifluoroacetate]"
12,< 6.00,"Cc1cc(C(C)Nc2ncnc3[nH]cnc23)c(-c2cc(F)cc(F)c2)c2nnccc12 (single isomer, unassigned) [Example 39, N-{1-[8-(3,5-difluorophenyl)-5-methylcinnolin-7-yl]ethyl}-9H-purin-6-amine]"
13,6.60 to 7.00,"CC(Nc1ncnc2[nH]cnc12)c1ccc2ccccc2c1-c1cccc(F)c1 (stereo not drawn) [Example 1, N-{1-[1-(3-fluorophenyl)-2-naphthyl]ethyl}-9H-purin-6-amine trifluoroacetate]"
14,> 7.30,"CC(Nc1nc(N)nc2[nH]cnc12)c1ccc2ccccc2c1-c1cncc(F)c1 (stereo not drawn) [Example 3, N(6)-{1-[1-(5-fluoropyridin-3-yl)-2-naphthyl]ethyl}-9H-purine-2,6-diamine bis-trifluoroacetate]"
15,6.00 to 6.30,"CC(Nc1ncnc2[nH]cnc12)c1ccc2cccnc2c1-c1cc(F)cc(F)c1 (stereo not drawn) [Example 6, N-{1-[8-(3,5-difluorophenyl)quinolin-7-yl]ethyl}-9H-purin-6-amine bis-trifluoroacetate]"
16,6.00 to 6.30,"CC(Nc1ncnc2[nH]cnc12)c1ccc2cccnc2c1-c1cncc(F)c1 (stereo not drawn) [Example 9, N-{1-[8-(5-fluoropyridin-3-yl)quinolin-7-yl]ethyl}-9H-purin-6-amine tris-trifluoroacetate]"
17,> 7.30,"COCCN1CCN(c2c(C(C)Nc3ncnc4[nH]cnc34)cc(Cl)c3cccnc23)CC1 (stereo not drawn) [Example 11, N-(1-{5-chloro-8-[4-(2-methoxyethyl)piperazin-1-yl]quinolin-7-yl]ethyl)-9H-purin-6-amine tris-trifluoroacetate]"

# Second part, the molecule before the results:
row,SMILES,pIC50
1,"CC(Nc1ncnc2[nH]cnc12)c1cc(Cl)c2ccnnc2c1-c1cc(F)cc(F)c1 (single isomer, unassigned) [Example 23, N-{1-[5-Chloro-8-(3,5-difluorophenyl)cinnolin-7-yl]ethyl}-9H-purin-6-amine]",> 7.30
2,"CC(Nc1ncnc2[nH]cnc12)c1cc(Cl)c2ccnnc2c1-c1cc(F)cc(F)c1 (single isomer, unassigned) [Example 24, N-{1-[5-Chloro-8-(3,5-difluorophenyl)cinnolin-7-yl]ethyl}-9H-purin-6-amine]",< 6.00
3,"CC(Nc1ncnc2[nH]cnc12)c1cc(Cl)c2ccnnc2c1-c1ccccc1F (single isomer, unassigned) [Example 25, N-{1-[5-Chloro-8-(2-fluorophenyl)cinnolin-7-yl]ethyl}-9H-purin-6-amine]",< 6.00
4,"CC(Nc1ncnc2[nH]cnc12)c1cc(Cl)c2ccnnc2c1-c1ccccc1F (single isomer, unassigned) [Example 26, N-{1-[5-Chloro-8-(2-fluorophenyl)cinnolin-7-yl]ethyl}-9H-purin-6-amine]",6.30 to 6.60
5,"CC(Nc1ncnc2[nH]cnc12)c1cc(Cl)c2ccnnc2c1-c1ccccc1F (single isomer, unassigned) [Example 27, N-{1-[5-Chloro-8-(2-fluorophenyl)cinnolin-7-yl]ethyl}-9H-purin-6-amine]",7.00 to 7.30
6,"CC(Nc1ncnc2[nH]cnc12)c1cc(F)c2ccnnc2c1-c1cc(F)cc(F)c1 (single isomer, unassigned) [Example 30, N-{1-[8-(3,5-difluorophenyl)-5-fluorocinnolin-7-yl]ethyl}-9H-purin-6-amine trifluoroacetate]",< 6.00
7,"CCC(Nc1ncnc2[nH]cnc12)c1cc(Cl)c2ccnnc2c1-c1cccc(F)c1 (single isomer, unassigned) [Example 32, N-{1-[5-chloro-8-(3-fluorophenyl)cinnolin-7-yl]propyl}-9H-purin-6-amine]",< 6.00
8,"Cc1cc(C(C)Nc2ncnc3[nH]cnc23)c(-c2cc(F)cc(F)c2)c2nnccc12 (single isomer, unassigned) [Example 38, N-{1-[8-(3,5-difluorophenyl)-5-methylcinnolin-7-yl]ethyl}-9H-purin-6-amine]",> 7.30
9,"Cc1nc2c(-c3cccc(F)c3)c(C(C)Nc3ncnc4[nH]cnc34)ccc2s1 (stereo not drawn) [Example 2, N-{1-[4-(3-fluorophenyl)-2-methyl-1,3-benzothiazol-5-yl]ethyl}-9H-purin-6-amine trifluoroacetate]",< 6.00
10,"CC(Nc1ncnc2[nH]cnc12)c1ccc2ccccc2c1-c1cncc(F)c1 (stereo not drawn) [Example 5, N-{1-[1-(5-fluoropyridin-3-yl)-2-napthyl]ethyl}-9H-purin-6-amine bis-trifluoroacetate]",> 7.30
11,"CC(Nc1ncnc2[nH]cnc12)c1ccc2cccnc2c1-c1cccc(F)c1 (stereo not drawn) [Example 8, N-{1-[8-(3-fluorophenyl)quinolin-7-yl]ethyl}-9H-purin-6-amine bis-trifluoroacetate]",6.30 to 6.60

# Same assay, conditions: separated isomer, 1st peak
row,pIC50,SMILES
1,6.00 to 6.30,"CC(Nc1nc(N)nc2[nH]cnc12)c1ccc2ccccc2c1-c1cccc(F)c1 (stereo not drawn) [Example 4, N(6)-{1-[1-(3-fluorophenyl)-2-napthyl]ethyl}-9H-purine-2,6-diamine]"
2,< 6.00,"CC(Nc1ncnc2[nH]cnc12)c1cc(Cl)c2cccnc2c1N1CC[C@@H](O)C1 (stereo partly drawn) [Example 12, (3R)-1-{5-chloro-7-[1-(9H-purin-6-ylamino)ethyl]quinolin-8-yl}pyrrolidin-3-ol bis-trifluoroacetate]"

# Continued, molecule first:
row,SMILES,pIC50
1,"CC(Nc1ncnc2[nH]cnc12)c1ccc2cccnc2c1-c1ccccc1F (stereo not drawn) [Example 7, N-{1-[8-(2-fluorophenyl)quinolin-7-yl]ethyl}-9H-purin-6-amine bis-trifluoroacetate]",< 6.00
2,"CC(Nc1ncnc2[nH]cnc12)c1cc(Cl)c2cccnc2c1-c1ccccc1F (stereo not drawn) [Example 10, N-{1-[5-chloro-8-(2-fluorophenyl)quinolin-7-yl]ethyl}-9H-purin-6-amine bis-trifluoroacetate]",6.60 to 7.00

# Same assay, conditions: separated isomer, 2nd peak
row,pIC50,SMILES
1,6.00 to 6.30,"CC(Nc1nc(N)nc2[nH]cnc12)c1ccc2ccccc2c1-c1cccc(F)c1 (stereo not drawn) [Example 4, N(6)-{1-[1-(3-fluorophenyl)-2-napthyl]ethyl}-9H-purine-2,6-diamine]"
2,> 7.30,"CC(Nc1ncnc2[nH]cnc12)c1cc(Cl)c2cccnc2c1N1CC[C@@H](O)C1 (stereo partly drawn) [Example 12, (3R)-1-{5-chloro-7-[1-(9H-purin-6-ylamino)ethyl]quinolin-8-yl}pyrrolidin-3-ol bis-trifluoroacetate]"

# More lines, now with the values behind:
row,SMILES,pIC50
1,"CC(Nc1ncnc2[nH]cnc12)c1ccc2cccnc2c1-c1ccccc1F (stereo not drawn) [Example 7, N-{1-[8-(2-fluorophenyl)quinolin-7-yl]ethyl}-9H-purin-6-amine bis-trifluoroacetate]",6.00 to 6.30
2,"CC(Nc1ncnc2[nH]cnc12)c1cc(Cl)c2cccnc2c1-c1ccccc1F (stereo not drawn) [Example 10, N-{1-[5-chloro-8-(2-fluorophenyl)quinolin-7-yl]ethyl}-9H-purin-6-amine bis-trifluoroacetate]",> 7.30
